The target of one assay is T1, AR(W741L) (Homo sapiens, UniProt P10275, W742L).
T1 construct: expressed in transfected cells; host or cells: HEK293
T1 sequence (P10275 1-920 W742L): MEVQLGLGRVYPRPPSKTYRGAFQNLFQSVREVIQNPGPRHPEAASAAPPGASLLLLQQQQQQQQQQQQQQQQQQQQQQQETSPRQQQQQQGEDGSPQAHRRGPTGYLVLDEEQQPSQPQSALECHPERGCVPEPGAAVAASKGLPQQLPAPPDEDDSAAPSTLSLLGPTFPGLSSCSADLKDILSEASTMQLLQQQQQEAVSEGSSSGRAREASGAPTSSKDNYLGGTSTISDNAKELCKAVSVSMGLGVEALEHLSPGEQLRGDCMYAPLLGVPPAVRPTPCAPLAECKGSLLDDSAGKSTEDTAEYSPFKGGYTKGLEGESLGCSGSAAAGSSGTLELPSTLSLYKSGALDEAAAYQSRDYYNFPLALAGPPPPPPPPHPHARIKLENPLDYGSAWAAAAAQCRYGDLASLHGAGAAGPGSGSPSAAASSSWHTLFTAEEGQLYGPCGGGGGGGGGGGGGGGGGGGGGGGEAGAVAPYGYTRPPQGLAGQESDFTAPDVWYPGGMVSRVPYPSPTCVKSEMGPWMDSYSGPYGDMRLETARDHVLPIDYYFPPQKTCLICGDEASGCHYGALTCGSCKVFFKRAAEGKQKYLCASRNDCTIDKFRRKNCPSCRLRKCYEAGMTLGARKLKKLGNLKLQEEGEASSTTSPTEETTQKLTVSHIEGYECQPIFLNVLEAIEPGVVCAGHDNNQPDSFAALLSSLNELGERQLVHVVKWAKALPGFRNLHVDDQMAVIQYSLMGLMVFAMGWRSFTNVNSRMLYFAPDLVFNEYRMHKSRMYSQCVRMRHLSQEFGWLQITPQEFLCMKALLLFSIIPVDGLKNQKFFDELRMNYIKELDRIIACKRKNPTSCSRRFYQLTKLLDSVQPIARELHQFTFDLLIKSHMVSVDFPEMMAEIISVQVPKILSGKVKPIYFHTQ
Briefly: Mutant AR antagonistic activity test, W741L (reporter gene in HEK293 cells). The settings on record: for IC50: HEK293 cells, DHT 10 nM, 24 hours, read-out: W741L IC50(nM) 1st gen AR antagonist resistant mutation. Format: cell-based. How it is done:
(§1) HEK293 cells were cultured in DMEM supplemented with 10% FBS and 1% GlutaMax at 37° C. with 5% CO2. The day before transfection, the medium was changed to DMEM containing 10% charcoal-stripped FBS and 1% GlutaMax. […] The cell suspension was diluted with cell seeding solution, and the transfection reagent was added to achieve 500,000 cells/mL. Subsequently, 90 μL of cell suspension was seeded into each well of the assay plate. The next day, compounds were prepared: starting from 8 mM, 3-fold serial dilutions were performed in DMSO for a total of 8 points, then 500 nL was transferred to the compound plate using Echo. The compounds were then diluted with 40 μL of medium to 10× final concentration, and 10 μL was transferred to the cell plate and incubated at 37° C. for 30 minutes. Subsequently, 10 nL of DHT at a final concentration of 10 nM was transferred to each well of the assay plate using TECAN. After 24 hours of incubation, 100 μL of Steady-Glo was added to the assay plate and read on an Envision reader. Data were determined and analyzed using GraphPad Prism.
On the technique in general: A reporter such as luciferase makes a cellular process visible.

The next assay addresses T2, AR(T877A) (Homo sapiens, UniProt P10275, T878A).
T2 construct: expressed in transfected cells; host or cells: HEK293
T2 sequence (P10275 1-920 T878A): T1 sequence (P10275 1-920 W742L) with L742W, T878A
In words: Mutant AR antagonistic activity test, T877A (reporter gene in HEK293 cells). The format is cell-based. The settings on record: for IC50: HEK293 cells, DHT 10 nM, 24 hours, read-out: T877A IC50(nM) 1st gen AR antagonist resistant mutation. As for the experimental part: as §1

The subject of assay [1] is androgen-dependent organs. In words: Hershberger assay, in vivo anti-androgenic activity. Set-up: species or system Sprague-Dawley rats. The settings on record: castrated male rats, 0.4 mg/kg testosterone propionate, 20 mg/kg QD oral, 10 days. How it is done:
The Hershberger assay was used to detect the in vivo anti-androgenic signal transduction activity of the compounds of the present invention. In this assay, compounds of the present invention (14, 33 and 37) were administered to prepubertal castrated male Sprague-Dawley rats in the presence of 0.4 mg/kg testosterone propionate (TP), and the weights of androgen-dependent organs were measured. Dosing continued for 10 days, and measurements were made 24 hours after the last dose. The degree of AR antagonism and subsequent organ growth inhibition was evaluated by comparison with castrated controls. The test compounds were orally administered at 20 mg/kg QD and the endpoint evaluation was performed by measuring the weight changes of 2 androgen-sensitive organs (ASO): seminal vesicles with coagulating glands (SVCG) and ventral prostate (VP). Enzalutamide (ENZ) was used as a positive control.

Residue numbers refer to the chain shown, from its start.

Broadly, the IC50 is the concentration that inhibits the measured activity by half.

As for `Cc1cn(C2=CCC3C4CC=C5C[C@@H](NC(=O)c6ccc(S(C)(=O)=O)cc6)CC[C@]5(C)C4CC[C@]23C)cn1` (stereo partly drawn) [Compound 35, N-((3S,10R,13S)-17-(4-methyl-1H-imidazol-1-yl)-10,13-dimethyl-2,3,4,7,8,9,10,11,12,13,14,15-dodecahydro-1H-cyclopenta[a]phenanthren-3-yl)-4-(methylsulfonyl)benzamide], the figures for the IC50 on AR(W741L) and at AR(T877A) were 259 nM and 462 nM, respectively. In addition, the “W741L antagonistic activity, fold improvement compared to enzalutamide” value at AR(W741L) (ratio to enzalutamide IC50) worked out at 4.0 fold.

Turning to `Cc1cn(C2=CCC3C4CC=C5C[C@@H](NC(=O)c6ccc(F)cc6F)CC[C@]5(C)C4CC[C@]23C)cn1` (stereo partly drawn) [Compound 37, N-((3S,10R,13S)-17-(4-methyl-1H-imidazol-1-yl)-10,13-dimethyl-2,3,4,7,8,9,10,11,12,13,14,15-dodecahydro-1H-cyclopenta[a]phenanthren-3-yl)-2,4-difluorobenzamide], the IC50 at AR(W741L) turned out to be 413 nM. In addition, at AR(T877A), the IC50 was found to be 281 nM. In assay [1], the “Growth of androgen-dependent organs (SVCG and VP weight) compared to the castration group” value (“Growth … compared to the castration group” below) is recorded as “significantly inhibited the growth of androgen-dependent organs”; the “In vivo anti-androgenic activity compared with enzalutamide” value is recorded as “activity comparable to enzalutamide”.

Turning to `Cc1cn(C2=CCC3C4CC=C5C[C@@H](NC(=O)c6ccc(F)cc6)CC[C@]5(C)C4CC[C@]23C)cn1` (stereo partly drawn) [Compound 33, N-((3S,10R,13S)-17-(4-methyl-1H-imidazol-1-yl)-10,13-dimethyl-2,3,4,7,8,9,10,11,12,13,14,15-dodecahydro-1H-cyclopenta[a]phenanthren-3-yl)-4-fluorobenzamide], the 50% inhibitory concentration (IC50) was determined as 371 nM on AR(W741L) and 79.8 nM on AR(T877A). Besides, the “T877A antagonistic activity, fold improvement compared to enzalutamide” value on AR(T877A) (ratio to enzalutamide IC50) worked out at 1.4 fold. In assay [1], the “Growth … compared to the castration group” value is on record as “significantly inhibited the growth of androgen-dependent organs”. Further, the “In vivo anti-androgenic activity compared with enzalutamide” value in assay [1] was “activity comparable to enzalutamide”.

As for `Cc1cn(C2=CCC3C4CC=C5C[C@@H](NC(=O)c6ccncc6)CC[C@]5(C)C4CC[C@]23C)cn1` (stereo partly drawn) [Compound 14, N-((3S,10R,13S)-10,13-dimethyl-17-(4-methyl-1H-imidazol-1-yl)-2,3,4,7,8,9,10,11,12,13,14,15-dodecahydro-1H-cyclopenta[a]phenanthren-3-yl)isonicotinamide], at AR(W741L), the 50% inhibitory concentration (IC50) is 490 nM. Moreover, the 50% inhibitory concentration (IC50) on AR(T877A) was 209 nM. Also, in assay [1], the “Growth … compared to the castration group” value is reported as “significantly inhibited the growth of androgen-dependent organs”; the “In vivo anti-androgenic activity compared with enzalutamide” value is listed as “activity comparable to enzalutamide”.

Source of the values: patent US20250073249A1, “STEROID COMPOUND, AND PREPARATION METHOD THEREFOR AND USE THEREOF” (SHANGHAI INSTITUTE OF MATERIA MEDICA, CHINESE ACADEMY OF …, priority 2022, published 2025).
